Data from patent US7723523B2, “Tetrahydropyridothiophenes” (4SC AG, priority 2004, dated 2010).

Experiments:
[1] = tested on: RKO (RKOp27) human colon adenocarcinoma cells; experiment: Alamar Blue cell viability assay, anti-proliferative/cytotoxic activity on proliferating RKOp27 cells; type: cell-based; settings: absence of Ponasterone A, 72 hours incubation, read-out: IC50 RKO p27 proliferating
Method in brief: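 RKOp27 subclone of RKO cells, 4000/well in DMEM with 10% FCS, was treated 24 h after seeding with semi-log compound dilutions in quadruplicate for 72 h at 37 °C, 5% CO2. Alamar Blue fluorescence (ex 544/em 590 nm) was read as % viability of untreated cells, and IC50 was taken from concentration-effect curves.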

[2] = tested on: RKO colon adenocarcinoma cells (RKOp27) arrested by expression of ectopic p27Kip1; experiment: Alamar Blue cell viability assay on RKOp27 cells arrested by Ponasterone A-induced p27Kip1 (cell cycle specific mode of action); type: cell-based; settings: Homo sapiens, RKOp27, 72 h, cells arrested by p27Kip1 induced with 10 μM Ponasterone A, 72 hours incubation, read-out: IC50 RKO p27 arrested
Method in brief: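 Viability measured by Alamar Blue fluorescence (ex 544, em 590 nm) after 72 h, 37 °C compound exposure in quadruplicate, normalized to untreated cells as 100%. Cells were p27Kip1-arrested RKOp27, induced with 10 μM Ponasterone A at seeding; compound added 24 h later.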

Row | IC50 [2] | SMILES | IC50 [1]
1 | ≥ 100 µM | CCOC(=O)N1CCc2c(sc(NC(=O)/C=C/c3ccccc3-c3ccccc3)c2C#N)C1 [Example 73, 2-((E)-3-Biphenyl-2-yl-allanoylamino)-3-cyano-4,7-dihydro-5H-thieno[2,3-c]pyridine-6-carboxylic acid ethyl ester] | ≤ 2 µM
2 | > 100 µM | CC(=O)N1CCc2c(sc(NC(=O)/C=C/c3ccccc3)c2C#N)C1 [Example 34, (E)-N-(6-Acetyl-3-cyano-4,5,6,7-tetrahydro-thieno[2,3-c]pyridin-2-yl)-3-phenyl-acrylamide] | ≤ 2 µM
3 | ≥ 100 µM | N#Cc1c(NC(=O)/C=C/c2ccccc2)sc2c1CCN(C(=O)OCCn1ccnc1)C2 [Example 136, 3-Cyano-2-((E)-3-phenyl-allanoylamino)-4,7-dihydro-5H-thieno[2,3-c]pyridine-6-carboxylic acid 2-imidazol-1-yl-ethyl ester] | ≤ 2 µM
4 | ≥ 100 µM | N#Cc1c(NC(=O)/C=C/c2cccnc2)sc2c1CCN(C(=O)OCCCc1ccccc1)C2 [Example 148, 3-Cyano-2-((E)-3-pyridin-3-yl-allanoylamino)-4,7-dihydro-5H-thieno[2,3-c]pyridine-6-carboxylic acid 3-phenyl-propyl ester] | ≤ 2 µM
5 | ≥ 50 µM | N#Cc1c(NC(=O)/C=C/c2ccccc2)sc2c1CCN(C(=O)Cc1c[nH]c3ccccc13)C2 [Example 182, (E)-N-[3-Cyano-6-(2-1H-indol-3-yl-ethanoyl)-4,5,6,7-tetrahydro-thieno[2,3-c]pyridin-2-yl]-3-phenyl-acrylamide] | ≤ 0.5 µM
6 | ≥ 50 µM | CCOC(=O)N1CCc2c(sc(NC(=O)/C=C/c3ccc(CC)o3)c2C#N)C1 [Example 77, 3-Cyano-2-[(E)-3-(5-ethyl-furan-2-yl)-allanoylamino]-4,7-dihydro-5H-thieno[2,3-c]pyridine-6-carboxylic acid ethyl ester] | ≤ 0.5 µM
7 | ≥ 50 µM | CCOc1ccccc1/C=C/C(=O)Nc1sc2c(c1C#N)CCN(C(=O)CCc1cccnc1)C2 [Example 220, (E)-N-[3-Cyano-6-(3-pyridin-3-yl-propanoyl)-4,5,6,7-tetrahydro-thieno[2,3-c]pyridin-2-yl]-3-(2-ethoxy-phenyl)-acrylamide] | ≤ 0.5 µM
